What is called LOAEL is the lowest tested level that showed an adverse finding. One may read the NOAEL as the highest dose or exposure tested at which no adverse effect was seen. A word on the LD50: it is the dose expected to kill half of the subjects tested.

Values joined by “and” are separate entries in the source; they are usually repeats but may differ in a detail not shown here. Equal values may be shown once.

The results in this text go back to EPA's ToxValDB 9.5.

The subject of data set [1] is Mus musculus. The following applies: oral, gavage.
The test system of data set [2] is Canidae. Particulars: chronic, oral, diet, Dog Other.
For data set [3], the system named is Mus musculus.
The test system of data set [4] is Oryctolagus sp. The following applies: dermal; for LD50: acute.
Data set [5] has as its system Rattus norvegicus. The following applies: for LC50 / LD50: acute.
Data set [6] relates to Rattus norvegicus. Particulars: short-term; duration: 28 days; oral; gavage; M/F; Clinical Observation: Tremor.
The subject of data set [7] is Rattus norvegicus. The following applies: oral.
Setting [8] is: subchronic, duration: 30 days, F, C57BL/6, Cardiovascular: Heart: Heart Weight, Relative + Hepatic: Liver: Liver Weight, Relative + Immune: Multi-Organ: Immunoglobulin M (IgM), Serum….
[9] abbreviates: subchronic, duration: 30 days, M, C57BL/6, Cardiovascular: Heart: Heart Weight, Relative + Hepatic: Liver: Liver Weight, Relative + Immune: Multi-Organ: Immunoglobulin M (IgM), Serum….
Where [10] appears, read: subchronic, duration: 30 days, M, C57BL/6, Hepatic: Liver: Liver Weight, Relative.
Setting [11] is: short-term, duration: 28 days, F, C57BL/6, Liver: Acyl-CoA Oxidase Activity, Liver + Multi-organ: IgM Serum Titer + Spleen: Spleen Weight, Absolute + Spleen: Spleen Weight, Relative.
Where [12] appears, read: short-term, duration: 28 days, F, C57BL/6, Liver: Liver Weight, Absolute + Liver: Liver Weight, Relative.
Where [13] appears, read: short-term, duration: 28 days, M, C57BL/6, Liver: Acyl-CoA Oxidase Activity, Liver + Liver: Liver Weight, Absolute + Liver: Liver Weight, Relative.
Where [14] appears, read: short-term, duration: 28 days, M, C57BL/6, Spleen: CD4-/CD8- Cell Count + Spleen: CD4+/CD8+ Cell Count + Spleen: CD8+ Cell Count.
[15] abbreviates: duration: 1 years, M/F, thyroid toxicity.
Where [16] appears, read: reproduction developmental, duration: 4 weeks, Inhalation, F, CD.
Setting [17] is: reproduction developmental, duration: 4 weeks, Inhalation, M, CD.
Setting [18] is: reproduction developmental, duration: 10 days, oral, gavage, Crl:CD(SD).
Where [19] appears, read: duration: 2 years, M/F, liver toxicity.
[20] abbreviates: duration: 2 years, M/F, cholinesterase inhibition.
[21] abbreviates: duration: 1 years, M/F, liver cell enlargement.
Where [22] appears, read: duration: 2 years, M/F, elevated alkaline phosphatase + Increase in thyroid/body weight ratio + slight increase in liver weights.
[23] abbreviates: duration: 1 years, M/F, Liver effects + organ weight changes.
Setting [24] is: duration: 1 years, M/F, tremors.
[25] abbreviates: Hershberger, duration: 7 days, gavage, Sprague-Dawley, active + Antiandrogenic + anti-androgenic + no AST effects in pairwise comparison but increasing trend for LABC and DL prostate / ….
The mark [26] stands for this setting: M/F, reduced body weight gain, skeletal myopathy, slight anemia, bone marrow hyperplasia, increased serum sgot, sgpt, cpk.

With `O=C(O)C(F)(F)C(F)(F)C(F)(F)OC(F)(F)F` [Perfluoro(4-methoxybutanoic acid)], the LOAEL in data set [1] (setting [8]), in data set [1] (setting [9]) and in data set [1] (setting [10]) was 50 mg/kg-day each time. Also, the NOAEL in data set [1] (setting [9]) is 5 mg/kg-day; in data set [1] (subchronic, duration: 30 days, M, C57BL/6, Cardiovascular: Heart: Heart Weight, Relative + Immune: Multi-Organ: Immunoglobulin M (IgM), Serum + Immune: Multi-Organ: Natural Killer (NK…), 50 mg/kg-day; in data set [1] (setting [10]) it was 5 mg/kg-day.

`O=C(O)CC(F)(F)C(F)(F)C(F)(F)C(F)(F)C(F)(F)C(F)(F)F` [2-(Perfluorohexyl)ethanoic acid]: the NOAEL in data set [1] (short-term, duration: 28 days, M, CD1, Liver: Alanine Aminotransferase (ALT) + Liver: Albumin (A) + Liver: Alkaline Phosphatase (ALP) + Liver: Aspartate Aminotransferase (AST) + …) is 5 mg/kg-day. In data set [1] (short-term, duration: 28 days, M, CD1, Liver: Total Cholesterol (CHOL)), this compound gave an LOAEL of 5 mg/kg-day.

As for `O=C(O)C(F)(OC(F)(F)C(F)(F)C(F)(F)F)C(F)(F)F` (configuration not stated) [Perfluoro-2-methyl-3-oxahexanoic acid], the LEL in data set [1] (setting [11]) is 100 mg/kg-day; in data set [1] (setting [12]) it was 10 mg/kg-day; in data set [1] (setting [13]), 10 mg/kg-day; in data set [1] (setting [14]), 100 mg/kg-day. Besides, the NEL in data set [1] (setting [11]) came out at 10 mg/kg-day; in data set [1] (setting [12]) it was 1 mg/kg-day; in data set [1] (short-term, duration: 28 days, F, C57BL/6, Spleen: B Cell Count + Spleen: CD4-/CD8- Cell Count + Spleen: CD4+ Cell Count + Spleen: CD4+/CD8+ Cell Count + Spleen: CD8+ Cell Count + …), 100 mg/kg-day; in data set [1] (setting [13]), 1 mg/kg-day; in data set [1] (short-term, duration: 28 days, M, C57BL/6, Multi-organ: IgM Serum Titer + Spleen: B Cell Count + Spleen: CD4+ Cell Count + Spleen: Spleen Weight, Absolute + Spleen: Spleen Weight, …), 100 mg/kg-day; in data set [1] (setting [14]) it was 10 mg/kg-day.

In data set [2] (setting [15]), `CC(=O)O.CCCCCCCCCCCCN=C(N)N` [Dodecylguanidine acetate] displayed an LEL of 5 mg/kg-day and an NOEL of 1.25 mg/kg-day.

As to `N#Cc1cccc(C#N)c1` [1,3-Benzenedicarbonitrile], the NOAEL in data set [3] (chronic, duration: 91 days, oral, diet, CD1) was 20 mg/kg-day; in data set [4] (short-term, duration: 3 weeks, non-occlusive, New Zealand) it was 500 mg/kg-day; in data set [5] (chronic, duration: 99 days, oral, diet, F, Charles River Crl:CD BR VAF/PLUS), 5 mg/kg-day; in data set [5] (chronic, duration: 99 days, oral, diet, M, Charles River Crl:CD BR VAF/PLUS) it was 1 mg/kg-day; in data set [5] (reproduction developmental, duration: 122 days, oral, diet, F), 25 mg/kg-day; in data set [5] (short-term, duration: 14 days, Inhalation, Sprague-Dawley), 190 mg/m3. Also, the 50% lethal dose (LD50) in data set [4] (occlusive) was more than 2000 mg/kg; in data set [5] (oral, gavage), more than 5010 mg/kg. In data set [5] (Inhalation, Sprague-Dawley), this compound returned an LC50 of more than 8970 mg/m3.

Compound `C1CN(SSN2CCOCC2)CCO1` [4,4'-Dithiodimorpholine] returned an LC50 in data set [3] (acute, inhalation) of 1620 mg/m3. Also, the LD50 in data set [4] (occlusive, New Zealand) is more than 5010 mg/kg; in data set [5] (oral, gavage, Sprague-Dawley), 5600 mg/kg. Besides, the LOAEL in data set [5] (setting [16]) stood at 29 mg/m3; in data set [5] (setting [17]), 9.9 mg/m3; in data set [5] (setting [18]), 500 mg/kg-day. Further, the figures for the no observed adverse effect level (NOAEL) in data set [5] (setting [16]), in data set [5] (setting [17]) and in data set [5] (setting [18]) were 9.9 mg/m3, 1.1 mg/m3 and 100 mg/kg-day, respectively.

On to `COc1nn(CSP(=S)(OC)OC)c(=O)s1` [Methidathion], for which, in data set [2] (setting [19]), the LEL came out at 0.4 mg/kg-day and the NOEL was 0.1 mg/kg-day.

In data set [2] (setting [20]), `CCOP(=O)(NC(C)C)Oc1ccc(SC)c(C)c1` (configuration not stated) [Fenamiphos] yielded an LEL of 0.05 mg/kg-day and an NOEL of 0.025 mg/kg-day.

Take `Oc1cc(Cl)ccc1Cl` [2,5-Dichlorophenol]: the median lethal dose (LD50) was ≥ 946 mg/kg and ≤ 1600 mg/kg in data set [3] (acute, oral, gavage, CD1); more than 8000 mg/kg in data set [4] (occlusive, New Zealand); 2480 mg/kg in data set [5] (oral, gavage, Wistar). The lowest-observed-adverse-effect level (LOAEL) was found to be 1 mg/kg-day in data set [4] (reproduction developmental, duration: 21 days, non-occlusive, New Zealand) and 0.1 mg/L in data set [5] (reproduction developmental, duration: 4 weeks, inhalation, Sprague-Dawley). Further, in data set [5] (inhalation, Spartan), the LC50 was more than 185000 mg/m3.

As for `Nc1c(Cl)c(Cl)nc(C(=O)O)c1Cl` [Picloram], in data set [2] (duration: 6 months, M/F, increased liver weight), the NOEL came out at 7 mg/kg-day. The compound also registered an LEL in data set [2] (duration: 6 months, M, increased liver weight) of 35 mg/kg-day.

Turning to `O=C(O)C(F)(F)C(F)(F)OC(F)(F)F` [Perfluoro-3-methoxypropanoic acid], the NOAEL in data set [1] (setting [8]) and in data set [1] (setting [9]) was 50 mg/kg-day in each case.

As for `C[Si](Cn1cncn1)(c1ccc(F)cc1)c1ccc(F)cc1` [Flusilazole], in data set [2] (setting [21]), the LEL came out at 0.7 mg/kg-day and the NOEL was 0.2 mg/kg-day.

As to `Cc1[nH]c(=O)n(C(C)(C)C)c(=O)c1Cl` [Terbacil], in data set [2] (setting [22]), the LEL stood at 6.25 mg/kg-day and the NOEL came out at 1.25 mg/kg-day.

With `Clc1ccccc1-c1nnc(-c2ccccc2Cl)nn1` [Clofentezine], in data set [2] (setting [23]), the LEL is 25 mg/kg-day and the NOEL was 1.25 mg/kg-day.

Consider `Cc1c(COC(=O)[C@@H]2[C@H](/C=C(\Cl)C(F)(F)F)C2(C)C)cccc1-c1ccccc1` [Bifenthrin], for which the NOEL in data set [6] turned out to be 50 ppm; in data set [2] (setting [24]) it was 1.5 mg/kg-day; in data set [7] (setting [25]) it was 10 mg/kg-day; in data set [7] (Hershberger, duration: 10 days, gavage, Sprague-Dawley, inactive + Negative + Negative + neither + negative) it was 10 mg/kg-day. Also, the LEL in data set [2] (setting [24]) came out at 3 mg/kg-day; in data set [7] (uterotrophic, duration: 3 days, Active), 13.2 mg/kg-day. Moreover, the LOEL in data set [7] (setting [25]) was 13.5 mg/kg-day.

For the compound `[S-]c1nc2ccccc2s1.[S-]c1nc2ccccc2s1.[Zn+2]` [Zinc 2-mercaptobenzothiazolate], in data set [3] (reproduction developmental, duration: 18 months, oral), the no observed adverse effect level (NOAEL) is 1000 mg/kg-day. Besides, the median lethal dose (LD50) is more than 2000 mg/kg in data set [4] (New Zealand); more than 7940 mg/kg in data set [4] (occlusive, New Zealand); 5500 mg/kg in data set [5] (oral, Sprague-Dawley); 7500 mg/kg in data set [5] (oral, gavage, Sprague-Dawley).

In data set [2] (setting [26]), `CC(C)C1(C)N=C(c2nc3ccccc3cc2C(=O)O)NC1=O` (configuration not stated) [Imazaquin] yielded an LEL of 125 mg/kg-day and an NOEL of 25 mg/kg-day.

In data set [3] (subchronic, duration: 13 weeks, inhalation, CD1), `c1ccc(-c2ccccc2)cc1` [Biphenyl] showed an LOAEL of 158 mg/m3. Moreover, the 50% lethal dose (LD50) in data set [4] (New Zealand) is more than 5010 mg/kg; in data set [5] (oral, Sprague-Dawley), 2400 mg/kg; in data set [5] (oral, gavage, Sprague-Dawley), 3280 mg/kg. Besides, the NOAEL worked out at 78 mg/kg-day in data set [5] (chronic, duration: 750 days, oral, diet); 500 mg/kg-day in data set [5] (developmental, duration: 10 days, oral, gavage, Wistar); 500 mg/kg-day in data set [5] (reproduction developmental, duration: 10 days, oral, gavage, F, Wistar); 1000 ppm in data set [5] (reproduction developmental, duration: 750 days, oral, diet, generation: F0); 5000 ppm in data set [5] (reproduction developmental, duration: 750 days, oral, diet, generation: F1); 1000 ppm in data set [5] (reproduction developmental, oral, diet, Long-Evans, generation: F0).
